Test results: PubChem BioAssay (NCI)
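A five-concentration, 48-hour dose response in 96-well plates underlies each endpoint, interpolated linearly between surrounding concentrations. Here, GI50 denotes the concentration required for 50% inhibition of growth. TGI denotes the concentration required for complete inhibition of growth.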

Key:
Experiment in all cases: NCI tumour cell line growth inhibition, 48 h
[1] = system: 786-0 renal
[2] = system: A498 renal
[3] = system: A549 NSCLC
[4] = system: ACHN renal
[5] = system: CAKI-1 renal
[6] = system: CCRF-CEM leukemia
[7] = system: COLO 205 colon
[8] = system: DLD-1 colon
[9] = system: DMS 273 small cell lung
[10] = system: EKVX NSCLC
[11] = system: HCC-2998 colon
[12] = system: HCT-116 colon
[13] = system: HCT-15 colon
[14] = system: HOP-62 NSCLC
[15] = system: HT29 colon
[16] = system: IGROV1 ovarian
[17] = system: K-562 leukemia
[18] = system: KM12 colon
[19] = system: KM20L2 colon
[20] = system: LXFL 529 NSCLC
[21] = system: M14 melanoma
[22] = system: M19-MEL melanoma
[23] = system: MALME-3M melanoma
[24] = system: MOLT-4 leukemia
[25] = system: NCI-H226 lung
[26] = system: NCI-H23 lung
[27] = system: NCI-H522 lung
[28] = system: OVCAR-3 ovarian
[29] = system: OVCAR-4 ovarian
[30] = system: OVCAR-5 ovarian
[31] = system: OVCAR-8 ovarian
[32] = system: RXF 393 renal
[33] = system: RXF-631 renal
[34] = system: SF-268 CNS
[35] = system: SF-295 CNS
[36] = system: SF-539 CNS
[37] = system: SK-MEL-2 melanoma
[38] = system: SK-MEL-28 melanoma
[39] = system: SK-MEL-5 melanoma
[40] = system: SK-OV-3 ovarian
[41] = system: SN12C renal
[42] = system: SNB-19 CNS
[43] = system: SNB-75 CNS
[44] = system: SNB-78 CNS
[45] = system: SR leukemia
[46] = system: SW-620 colon
[47] = system: TK-10 renal
[48] = system: U251 CNS
[49] = system: UACC-257 melanoma
[50] = system: UACC-62 melanoma
[51] = system: UO-31 renal
[52] = system: XF 498 CNS

SMILES: CC(=O)CC(=O)Nc1c(C)[c]([Hg][O]C(C)=O)c(C)[c]([Hg][O]C(C)=O)[c]1[Hg][O]C(C)=O
- GI50 [1]: 10.9 µM
- TGI [1]: 24.4 µM
- GI50 [2]: 15.3 µM
- TGI [2]: 28.8 µM
- GI50 [3]: 17.1 µM
- TGI [3]: 34.2 µM
- GI50 [4]: 14.2 µM
- TGI [4]: 27.3 µM
- GI50 [5]: 18.6 µM
- TGI [5]: 32.6 µM
- GI50 [6]: 4.01 µM
- TGI [6]: 49.5 µM
- GI50 [7]: 33.3 µM
- TGI [7]: > 100 µM
- GI50 [8]: 13.6 µM
- TGI [8]: 51.1 µM
- GI50 [9]: 18.4 µM
- TGI [9]: 50.4 µM
- GI50 [10]: 20.6 µM
- TGI [10]: 41.3 µM
- GI50 [11]: 17.6 µM
- TGI [11]: 32.6 µM
- GI50 [12]: 18.2 µM
- TGI [12]: 41.1 µM
- GI50 [13]: 15.1 µM
- TGI [13]: 35.7 µM
- GI50 [14]: 20.8 µM
- TGI [14]: 36.4 µM
- GI50 [15]: 12.2 µM
- TGI [15]: 30.5 µM
- GI50 [16]: 15.4 µM
- TGI [16]: 40.7 µM
- GI50 [17]: 4 µM
- TGI [17]: > 100 µM
- GI50 [18]: 16.9 µM
- TGI [18]: 34.8 µM
- GI50 [19]: 18.8 µM
- TGI [19]: 48.2 µM
- GI50 [20]: 6.54 µM
- TGI [20]: 20.7 µM
- GI50 [21]: 12.7 µM
- TGI [21]: 29.8 µM
- GI50 [22]: 15.4 µM
- TGI [22]: 36.5 µM
- GI50 [23]: 6.56 µM
- TGI [23]: 20.4 µM
- GI50 [24]: 10.3 µM
- TGI [24]: > 100 µM
- GI50 [25]: 29.4 µM
- TGI [25]: 56.5 µM
- GI50 [26]: 10.6 µM
- TGI [26]: 24.5 µM
- GI50 [27]: 10.4 µM
- TGI [27]: 35.8 µM
- GI50 [28]: 12.8 µM
- TGI [28]: 25.5 µM
- GI50 [29]: 15.6 µM
- TGI [29]: 30.6 µM
- GI50 [30]: 28.9 µM
- TGI [30]: 71.8 µM
- GI50 [31]: 10.9 µM
- TGI [31]: 24.4 µM
- GI50 [32]: 3.44 µM
- TGI [32]: 16.2 µM
- GI50 [33]: 2.39 µM
- TGI [33]: 7.75 µM
- GI50 [34]: 15.4 µM
- TGI [34]: 35.4 µM
- GI50 [35]: 18.5 µM
- TGI [35]: 36.2 µM
- GI50 [36]: 18.1 µM
- TGI [36]: 37.1 µM
- GI50 [37]: 16.1 µM
- TGI [37]: 31.7 µM
- GI50 [38]: 12.6 µM
- TGI [38]: 26.3 µM
- GI50 [39]: 2.99 µM
- TGI [39]: 11.3 µM
- GI50 [40]: 20.9 µM
- TGI [40]: 35.3 µM
- GI50 [41]: 17.5 µM
- TGI [41]: 33.3 µM
- GI50 [42]: 2.47 µM
- TGI [42]: 6.61 µM
- GI50 [43]: 12.9 µM
- TGI [43]: 25.9 µM
- GI50 [44]: 22.7 µM
- TGI [44]: 58.4 µM
- GI50 [45]: 5.31 µM
- TGI [45]: > 100 µM
- GI50 [46]: 10 µM
- TGI [46]: 27.4 µM
- GI50 [47]: 13 µM
- TGI [47]: 25.7 µM
- GI50 [48]: 11.7 µM
- TGI [48]: 24.6 µM
- GI50 [49]: 14.4 µM
- TGI [49]: 28.5 µM
- GI50 [50]: 11.8 µM
- TGI [50]: 24.1 µM
- GI50 [51]: 22.4 µM
- TGI [51]: 40 µM
- GI50 [52]: 4.38 µM
- TGI [52]: 15.6 µM
